Reference: ChEMBL document CHEMBL1201862, “PubChem BioAssay data set” (2004)
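How tested: cells in 96-well plates exposed to compound for 48 hours at five concentrations. Abbreviation: GI50, concentration required for 50% inhibition of growth.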 Active and inactive are the calls of the source. Cut-off read from the data, not from the text of the source: active = GI50 up to about 1.1 µM and inactive = higher.

Experiments:
Test in all cases: NCI-60 cell line screen, 48 h
OVCAR-4 = tested on: OVCAR-4
CAKI-1 = tested on: CAKI-1
SK-MEL-5 = tested on: SK-MEL-5
SK-MEL-28 = tested on: SK-MEL-28
SF-539 = tested on: SF-539
SF-268 = tested on: SF-268
HOP-62 = tested on: HOP-62
SN12C = tested on: SN12C
KM12 = tested on: KM12
SF-295 = tested on: SF-295
EKVX = tested on: EKVX
U-251 = tested on: U-251
OVCAR-5 = tested on: OVCAR-5
NCI-H23 = tested on: NCI-H23
NCI-H226 = tested on: NCI-H226
UACC-62 = tested on: UACC-62
LOX IMVI = tested on: LOX IMVI
SR = tested on: SR

Measured: GI50

COc1cc2ccnc(C#N)c2cc1OCc1ccccc1
inactive: OVCAR-4 33.7 µM | CAKI-1 > 100 µM | SK-MEL-5 > 100 µM | SK-MEL-28 > 100 µM | SF-539 49.9 µM | SF-268 39.2 µM | HOP-62 35.6 µM | SN12C > 100 µM | KM12 > 100 µM | SF-295 32.1 µM | EKVX > 100 µM | U-251 48 µM | OVCAR-5 > 100 µM | NCI-H23 > 100 µM

O=C1C2=C(c3ccccc31)C(c1ccc(F)cc1)N1C(=O)CCSC1=N2 (stereo unspecified)
inactive: OVCAR-4 56 µM | CAKI-1 69 µM | SK-MEL-5 60.5 µM | SK-MEL-28 > 100 µM | SF-539 > 100 µM | SF-268 > 100 µM | HOP-62 > 100 µM | SN12C 42.9 µM | KM12 55.1 µM | SF-295 > 100 µM | EKVX > 100 µM | NCI-H226 93.3 µM | UACC-62 62.1 µM | U-251 > 100 µM | OVCAR-5 > 100 µM | NCI-H23 > 100 µM

CC[P+](C)(Cc1ccccc1)c1ccccc1.O=C(OC(C(=O)[O-])C(OC(=O)c1ccccc1)C(=O)O)c1ccccc1 (stereo unspecified)
inactive: OVCAR-4 > 100 µM | CAKI-1 > 100 µM | SK-MEL-28 > 100 µM | SF-539 > 100 µM | SF-268 > 100 µM | LOX IMVI > 100 µM | HOP-62 > 100 µM | SN12C > 100 µM | KM12 > 100 µM | SF-295 > 100 µM | EKVX > 100 µM | UACC-62 > 100 µM | U-251 > 100 µM | OVCAR-5 > 100 µM | NCI-H23 > 100 µM

NC(=O)CCC(NC(=O)Cc1ccccc1)C(=O)O.NC(CCC(=O)NC(=O)Cc1ccccc1)C(=O)O (stereo unspecified)
inactive: OVCAR-4 > 8130 µM | CAKI-1 > 8130 µM | SK-MEL-5 > 8130 µM | SK-MEL-28 > 8130 µM | SF-539 > 8130 µM | SF-268 > 8130 µM | SR > 8130 µM | HOP-62 > 8130 µM | SN12C > 8130 µM | KM12 > 8130 µM | SF-295 > 8130 µM | EKVX > 8130 µM | UACC-62 > 8130 µM | U-251 > 8130 µM | OVCAR-5 > 8130 µM | NCI-H23 > 8130 µM

Cc1ccc(C)c2c1CCc1cc3ccccc3nc1-2
inactive: OVCAR-4 > 100 µM | CAKI-1 > 100 µM | SK-MEL-5 > 100 µM | SK-MEL-28 > 100 µM | SF-539 > 100 µM | SF-268 > 100 µM | HOP-62 > 100 µM | SN12C > 100 µM | KM12 > 100 µM | SF-295 > 100 µM | EKVX > 100 µM | UACC-62 > 100 µM | U-251 > 100 µM | OVCAR-5 > 100 µM | NCI-H23 > 100 µM

CC/C=C1\N=C(c2ccc(Cl)cc2)OC1=O
inactive: OVCAR-4 > 100 µM | CAKI-1 > 100 µM | SK-MEL-28 > 100 µM | SF-539 > 100 µM | SF-268 > 100 µM | LOX IMVI > 100 µM | HOP-62 > 100 µM | SN12C > 100 µM | KM12 > 100 µM | SF-295 > 100 µM | EKVX > 100 µM | NCI-H226 > 100 µM | UACC-62 > 100 µM | OVCAR-5 > 100 µM | NCI-H23 > 100 µM

Cc1ccc(S(=O)(=O)N2CCC2c2ccccc2)cc1 (stereo unspecified)
inactive: OVCAR-4 46.6 µM | SK-MEL-5 42 µM | SK-MEL-28 > 100 µM | SF-539 > 100 µM | SF-268 82.2 µM | LOX IMVI > 100 µM | HOP-62 > 100 µM | SN12C > 100 µM | KM12 82 µM | SF-295 74.6 µM | EKVX 64 µM | NCI-H226 28.6 µM | UACC-62 76.7 µM | U-251 > 100 µM | NCI-H23 76.4 µM
